Values belong to the compound of their own block, whether it stands above or below them.
Key:
[1] = tested on: human uterine cervical cancer cell line (Hela-Luc); experiment: Evaluation of the anti-tumor effect (1), Hela-Luc subcutaneous transplant; details: for BWC (body weight change) / RTV (relative tumor volume): paclitaxel 30 mg/kg i.v. day 1, compound 60 mg/kg orally twice a day on day 2 and day 3; for potentiation of the anti-tumor effect of paclitaxel (in words): combination with paclitaxel versus paclitaxel-only group
Description: The luciferase-introduced human uterine cervical cancer cell line (Hela-Luc) was subcutaneously transplanted into a nude mouse, and when the volume of the grafted tumor reached 100 to 200 mm^3, five mice in one group were grouped into the single drug administration group and combinational administration group by a randomized stratification method so as to achieve a uniform tumor volume in each group (day 1). […] In order to compare the anti-tumor effect brought about by drug administration, setting the tumor volume at the time of grouping at 1, the relative tumor volume (RTV) was determined in accordance with the following formula as a rate of tumor proliferation. RTV=(Tumor volume on the day of measurement of tumor volume)/(Tumor volume at the time of grouping)
Meanwhile, as the index of systemic toxicity caused by drug administration, the body weight change (BWC) was used. BWC (%)=([(Body weight of mouse on the day of body weight measurement)−(Body weight of mouse at the time of grouping)]/(Body weight of mouse at the time of grouping))×100

[2] = Evaluation of oral absorbability (plasma concentration after oral administration); assay type: in vivo; details: 0.5% HPMC, BALB/cA mouse, plasma 0.5-6 hours
Description: The test compound was suspended or dissolved in 0.5% HPMC and orally administered to a BALB/cA mouse. The blood was drawn from the retro-orbital venous plexus 0.5, 1, 2, 4, and 6 hours after oral administration to obtain plasma. The concentration of the compound in the plasma thus obtained was measured by LCMS and the oral absorbability was evaluated.

[3] = tested on: human uterine cervical cancer cell line (Hela-Luc); experiment: Evaluation of the anti-tumor effect (2), Hela-Luc subcutaneous transplant; assay type: in vivo, nude mouse; details: for BWC (body weight change) / RTV (relative tumor volume): Day 11, paclitaxel 20 mg/kg i.v. day 1; for potentiation of the anti-tumor effect of paclitaxel (in words): combination with paclitaxel versus paclitaxel-only group
human aurora B = human aurora B (Homo sapiens (Human), UniProt Q96GD4); experiment: Inhibitory activity on aurora B kinase; assay type: biochemical; details: ATP 40 μM, 60 minutes
Description: (§1) The inhibitory activity of a test compound on aurora A and aurora B was measured in accordance with the following method.

human aurora A = human aurora A (Homo sapiens (Human), UniProt O14965); experiment: Inhibitory activity on aurora A kinase (IMAP fluorescence polarization); assay type: biochemical
Description: as §1
The cDNA encoding human aurora A having a N-term fused histidine tag was inserted into an expression vector and this protein was expressed at a high level in the E. coli BL21-CodonPlus (DE3)-RIL strain. The E. coli were collected and solubilized, and histidine tag-fused human aurora A protein was extracted by adsorption to a nickel chelate column and then eluted with imidazole from the column. The active fraction was desalted with a desalting column, whereby a purified enzyme was obtained.

[4] = Compound 22 100 mg/kg (single) or 60 mg/kg (combination) orally twice a day on day 2 and day 3
[5] = Compound 13 30 mg/kg orally twice a day on day 2 and day 3

Sequence of human aurora B (Q96GD4 whole entry): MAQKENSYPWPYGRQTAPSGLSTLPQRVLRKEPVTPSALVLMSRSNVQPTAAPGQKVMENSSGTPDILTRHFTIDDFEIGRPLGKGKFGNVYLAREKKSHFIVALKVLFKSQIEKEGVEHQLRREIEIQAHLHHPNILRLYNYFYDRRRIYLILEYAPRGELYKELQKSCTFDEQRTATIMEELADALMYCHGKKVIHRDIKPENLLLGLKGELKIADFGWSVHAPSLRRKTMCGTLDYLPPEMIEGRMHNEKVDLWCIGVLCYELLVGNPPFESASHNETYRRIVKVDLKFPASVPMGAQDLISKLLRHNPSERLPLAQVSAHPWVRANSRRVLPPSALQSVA
Sequence of human aurora B (Q9NQS7 803-918 partner): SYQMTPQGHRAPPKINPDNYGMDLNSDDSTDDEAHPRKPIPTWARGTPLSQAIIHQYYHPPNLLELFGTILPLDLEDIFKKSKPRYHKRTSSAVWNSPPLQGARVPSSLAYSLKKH
Sequence of human aurora A (O14965 whole entry): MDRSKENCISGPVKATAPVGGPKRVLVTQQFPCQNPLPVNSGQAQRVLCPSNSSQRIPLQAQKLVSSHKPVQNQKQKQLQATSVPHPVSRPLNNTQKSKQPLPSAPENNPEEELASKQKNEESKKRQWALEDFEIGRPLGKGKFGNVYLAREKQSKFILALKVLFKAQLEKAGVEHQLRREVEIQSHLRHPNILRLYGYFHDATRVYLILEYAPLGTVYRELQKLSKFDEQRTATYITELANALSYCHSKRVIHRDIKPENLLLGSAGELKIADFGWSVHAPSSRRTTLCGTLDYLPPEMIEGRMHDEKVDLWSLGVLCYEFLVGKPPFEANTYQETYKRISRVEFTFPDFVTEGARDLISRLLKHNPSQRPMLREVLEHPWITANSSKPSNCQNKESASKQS

SMILES: O=C(c1cccc(Cl)c1F)N1CCC(Cc2cccc(Nc3cc[nH]n3)n2)(c2n[nH]c(=O)o2)CC1 [Comparative Example 1, 5-(1-(3-chloro-2-fluorobenzoyl)-4-((6-(1H-pyrazol-3-ylamino)pyridin-2-yl)methyl)piperidin-4-yl)-1,3,4-oxadiazol-2(3H)-one]
BWC (body weight change) ([1]; Day 23): 11.6%
RTV (relative tumor volume) ([1]; Day 23): 15.23
potentiation of the anti-tumor effect of paclitaxel (in words) [1]: did not clearly potentiate the anti-tumor effect

oral absorbability (plasma concentration after oral administration) [2]: favorable oral absorbability
SMILES: Cc1cc(Nc2nc(CC3(c4noc(C)n4)CCN(C(=O)c4cccc(Cl)c4F)CC3)ccc2F)n[nH]1 [Example 22, (3-chloro-2-fluorophenyl)(4-((5-fluoro-6-(5-methyl-1H-pyrazol-3-ylamino)pyridin-2-yl)methyl)-4-(5-methyl-1,2,4-oxadiazol-3-yl)piperidin-1-yl)methanone]
BWC (body weight change) [3, 4]: 6.9%
RTV (relative tumor volume) [3, 4]: 4.66
potentiation of the anti-tumor effect of paclitaxel (in words) [3]: remarkably potentiated

oral absorbability (plasma concentration after oral administration) [2]: favorable oral absorbability
SMILES: Cc1cc(Nc2nc(CC3(C(=O)O)CCN(C(=O)c4cccc(Cl)c4Cl)CC3)ccc2F)n[nH]1 [Example 1, 1-(2,3-dichlorobenzoyl)-4-((5-fluoro-6-(5-methyl-1H-pyrazol-3-ylamino)pyridin-2-yl)methyl)piperidine-4-carboxylic acid]
BWC (body weight change) ([1]; Day 23): 11.6%
RTV (relative tumor volume) ([1]; Day 23): 10.47
potentiation of the anti-tumor effect of paclitaxel (in words) [1]: remarkably potentiated

IC50 (human aurora B): 320 nM
IC50 (human aurora A; ATP 5 μM, 25° C., 50 minutes): 220 nM
SMILES: Cc1cc(Nc2nc(CC3(C(=O)O)CCN(C(=O)c4cccc(Cl)c4F)CC3)ccc2C#N)n[nH]1 [Comparative Example 6, 1-(3-chloro-2-fluorobenzoyl)-4-((5-cyano-6-(5-methyl-H-pyrazol-3-ylamino)pyridin-2-yl)methyl)piperidine-4-carboxylic acid]
inhibitory activity on aurora A and selectivity for aurora A (in words) (human aurora A; compared with aurora B and with MLN8237): did not exhibit either inhibitory activity on aurora A or selectivity for aurora A

oral absorbability (plasma concentration after oral administration) [2]: favorable oral absorbability
SMILES: Cc1cc(Nc2nc(CC3(C(=O)O)CCN(C(=O)c4cccc(Cl)c4F)CC3)ccc2Cl)n[nH]1 [Example 12, 1-(3-chloro-2-fluorobenzoyl)-4-((5-chloro-6-(5-methyl-1H-pyrazol-3-ylamino)pyridin-2-yl)methyl)piperidine-4-carboxylic acid]

oral absorbability (plasma concentration after oral administration) [2]: favorable oral absorbability
SMILES: COc1ccc(CC2(C(=O)O)CCN(C(=O)c3cccc(Cl)c3F)CC2)nc1Nc1cc(C)[nH]n1 [Example 11, 1-(3-chloro-2-fluorobenzoyl)-4-((5-methoxy-6-(5-methyl-1H-pyrazol-3-ylamino)pyridin-2-yl)methyl)piperidine-4-carboxylic acid]

SMILES: CC(=O)O[C@H]1C(=O)[C@@]2(C)[C@H]([C@H](OC(=O)c3ccccc3)[C@]3(O)C[C@H](OC(=O)[C@H](O)[C@@H](NC(=O)c4ccccc4)c4ccccc4)C(C)=C1C3(C)C)[C@]1(OC(C)=O)CO[C@@H]1C[C@@H]2O [Paclitaxel, paclitaxel]
BWC (body weight change) ([1]; Day 23): 3.0%
RTV (relative tumor volume) ([1]; Day 23): 0.69
BWC (body weight change) ([1]; Day 46): 11.6%
RTV (relative tumor volume) ([1]; Day 46): 5.38
DCR (disease control rate) ([1]; Day 46, ratio of individuals in which RTV does not exceed 1): 40%
BWC (body weight change) [3, 5]: 5.4%
RTV (relative tumor volume) [3, 5]: 2.90
BWC (body weight change) [3, 4]: 7.8%
RTV (relative tumor volume) [3, 4]: 3.05

oral absorbability (plasma concentration after oral administration) [2]: favorable oral absorbability
SMILES: Cc1cc(Nc2nc(CC3(C(=O)O)CCN(C(=O)c4cccc(Cl)c4F)CC3)ccc2F)n[nH]1 [Example 13, 1-(3-chloro-2-fluorobenzoyl)-4-((5-fluoro-6-(5-methyl-1H-pyrazol-3-ylamino)pyridin-2-yl)methyl)piperidine-4-carboxylic acid]
BWC (body weight change) [3, 5]: 6.0%
RTV (relative tumor volume) [3, 5]: 6.54
potentiation of the anti-tumor effect of paclitaxel (in words) [3]: remarkably potentiated

IC50 (human aurora B): 680 nM
SMILES: Cc1cc(Nc2nc(CC3(C(=O)N4CCC4)CCN(C(=O)c4cccc(Cl)c4F)CC3)ccc2F)n[nH]1 [Example 19, azetidin-1-yl(1-(3-chloro-2-fluorobenzoyl)-4-((5-fluoro-6-(5-methyl-1H-pyrazol-3-ylamino)pyridin-2-yl)methyl)piperidin-4-yl)methanone]

Source: patent publication US9346787B2, “Piperidine compound or salt thereof” (TAIHO PHARMACEUTICAL CO., LTD., priority 2012, dated 2016)
